From patent US8735391B2, “Synthesis of functionalized octahydro-isoquinolin-1-one-8-carboxamides, octahydro-isoquinolin-1-one-8-carboxylic esters and analogs, and therapeutic methods” (University of Kansas, priority 2008, dated 2014)
Read-outs that look alike come from different tables or passages of the source.

How the values were obtained:
DOR = DOR (Homo sapiens, UniProt P41143); test: Opioid secondary binding, DOR (Table 4); details: Opioid secondary binding activity for Formula 10 analogs
KOR [1] = target: T1, KOR (Homo sapiens, UniProt P41145); test: [35S]GTPγS binding functional agonist assay on membranes of CHO cells expressing hKOR (reference agonist U69593); type: biochemical; design: expressed in transfected cells; host or cells: CHO cells, stably transfected; crude membrane fractions; details: for Emax values relative to U69593: [35S]GTPγS data-fit top relative to reference agonist U69593; for Emax: read-out: Emax values relative to U69593
Description: The compounds prepared herein were tested for bioactivity with opioid receptors. Agonist assays: Data represent the percent efficacy (relative to cognate agonist) of the test compound at 10 micromolar. The response to a saturating concentration of a reference antagonist or to vehicle (usually none or negligible) is set to 0%. […] The response inhibition elicited by a saturating concentration of reference antagonist is set to 100%; the response inhibition (usually none or negligible) elicited by vehicle is set to 0%. The following tables provide data related to the bioactivity for opioid receptors of the compounds described herein.
Table 6 provides data that represent the average percent efficacy (N=4; relative to cognate agonist) of the test compound at 10 micromolar concentration. The response to a saturating concentration of cognate/reference agonist is set to 100%; the response to a saturating concentration of a reference antagonist or to vehicle (usually none or negligible) is set to 0%. All functional assays are performed on stably transfected CHO-cell lines expressing hKOR, hMOR or hDOR.
(§1) Serial dilutions of the test and reference compounds are made in binding buffer at 2× assay concentration (final assay concentrations ranging from 0.1 nM to 10 μM). Crude membrane fractions (1.8 to 3.5 cm2/well) (prepared from 10-cm plates by harvesting PBS-rinsed monolayers, resuspending and lysing in chilled, hypotonic 50 mM Tris-HCl, pH 7.4, centrifuging at 20,000×g, decanting the supernatant and storing at −80 degrees centigrade; typically, one 10-cm plate provides sufficient material for 24 wells) are resuspended in 1.2 ml of assay buffer containing 20 μM GDP, wheat germ agglutinin (WGA)-coated scintillation proximity beads (2.4 mg), and [35S]GTPγS (300 pM final). The suspension is then added (50 μl/well) to 50 μl of the 2× test or reference compounds (each concentration assayed in triplicate) in flexible transparent PET 96-well plates. The reaction plate is sealed and incubated for 90 min at room temperature, then centrifuged for 5 min at 216×g, and finally loaded into a Wallac MicroBeta TriLux counter. Non-specific [35S]GTPγS binding is assessed at the maximum concentration of reference agonist in the presence of 10 μM antagonist. The background signal is measured at 10 μM reference agonist in the presence of 10 μM unlabeled GTPγS. Raw data (dpm) representing total [35S]GTPγS binding (i.e., specific+non-specific binding) are calculated as a percentage of the maximum response by the reference agonist (in this case U69593).
as §1, with “GTPγS.” for “GTPγS. Raw data (dpm) representing total [35S]GTPγS binding (i.e., specific+non-specific binding) are calculated as a percentage of the maximum response by the reference agonist (in this case U69593).”

KOR [2] = target: T1, KOR; test: Opioid secondary binding, KOR (Tables 4, 5, 8, 9)
MOR = MOR (Homo sapiens, UniProt P35372); test: Opioid secondary binding, MOR (Tables 4, 5, 8)
[3] = Opioid secondary binding activity for Formula 10 analogs, read-out: KOR, Ki
[4] = Opioid secondary binding activity for Formula 10 analogs, read-out: MOR, Ki

T1 sequence (P41145 whole entry): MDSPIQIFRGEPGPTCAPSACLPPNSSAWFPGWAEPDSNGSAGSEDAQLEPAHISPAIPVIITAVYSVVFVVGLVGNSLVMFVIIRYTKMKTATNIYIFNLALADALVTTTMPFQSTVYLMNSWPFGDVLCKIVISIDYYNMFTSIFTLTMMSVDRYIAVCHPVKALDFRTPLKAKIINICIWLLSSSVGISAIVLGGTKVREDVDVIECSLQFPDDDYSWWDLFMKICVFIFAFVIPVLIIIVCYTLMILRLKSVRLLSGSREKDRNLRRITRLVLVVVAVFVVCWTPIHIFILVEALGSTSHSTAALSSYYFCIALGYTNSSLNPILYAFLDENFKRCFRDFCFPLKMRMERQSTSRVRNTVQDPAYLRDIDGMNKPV
MOR, sequence (P35372 whole entry): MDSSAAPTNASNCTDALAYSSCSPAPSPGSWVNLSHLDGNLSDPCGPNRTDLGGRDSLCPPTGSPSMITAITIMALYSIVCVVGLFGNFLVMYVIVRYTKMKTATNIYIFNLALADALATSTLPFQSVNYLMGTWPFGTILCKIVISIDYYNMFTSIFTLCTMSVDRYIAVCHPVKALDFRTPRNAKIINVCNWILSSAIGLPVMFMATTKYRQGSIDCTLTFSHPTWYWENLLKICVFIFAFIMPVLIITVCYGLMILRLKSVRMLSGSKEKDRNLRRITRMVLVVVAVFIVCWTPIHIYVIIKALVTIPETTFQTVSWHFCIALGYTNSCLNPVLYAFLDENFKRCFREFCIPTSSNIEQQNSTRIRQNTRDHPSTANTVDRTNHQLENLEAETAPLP
DOR, sequence (P41143 whole entry): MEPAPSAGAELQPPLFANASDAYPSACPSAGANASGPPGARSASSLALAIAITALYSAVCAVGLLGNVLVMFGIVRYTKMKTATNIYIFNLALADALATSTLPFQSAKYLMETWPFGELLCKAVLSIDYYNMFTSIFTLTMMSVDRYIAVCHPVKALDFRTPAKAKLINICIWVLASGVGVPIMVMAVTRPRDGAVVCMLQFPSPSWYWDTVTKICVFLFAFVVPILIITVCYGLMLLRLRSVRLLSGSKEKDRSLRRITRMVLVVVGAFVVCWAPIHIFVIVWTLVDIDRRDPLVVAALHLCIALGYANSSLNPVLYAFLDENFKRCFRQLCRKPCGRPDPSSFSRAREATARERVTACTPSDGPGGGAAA

Compound | Emax values relative to U69593 (KOR [1]) [%] | Ki (KOR [2]; [3]) [nM] | Ki (MOR; [4]) [nM] | also measured
O=C(Nc1cc(C(F)(F)F)ccc1Cl)C1CC=CC2CCN(C3CCCCC3)C(=O)C21 (racemic) [compound 11837] | 106 | 94 |  | Ki (DOR): 8020 nM
O=C(Nc1cc(C(F)(F)F)ccc1Cl)C1CC=CC2CCN(CCc3ccccc3)C(=O)C21 (racemic) [compound 11849] |  | 1820 | 2410 | 
O=C(NCc1ccc(Cl)c(C(F)(F)F)c1)[C@@H]1CC=C[C@@H]2CCN(c3ccccc3)C(=O)[C@@H]21 (racemic) [compound 11862] | 81 | 98 |  | 
O=C(Nc1ccc(Br)c(C(F)(F)F)c1)[C@@H]1CC=C[C@@H]2CCN(c3ccccc3)C(=O)[C@@H]21 (racemic) [compound 11863] | 95 | 12 |  | 
O=C(Nc1ccc(Cl)cc1C(F)(F)F)[C@@H]1CC=C[C@@H]2CCN(c3ccccc3)C(=O)[C@@H]21 (racemic) [compound 11864] | 119 | 68 |  | 
Cc1cc(NC(=O)[C@@H]2CC=C[C@@H]3CCN(c4ccccc4)C(=O)[C@@H]32)ccc1Cl (racemic) [compound 11866] | 123 | 33.5 |  | 
O=C(NCc1ccc(Cl)c(C(F)(F)F)c1)[C@@H]1CC=C[C@@H]2CCN(Cc3ccccc3)C(=O)[C@@H]21 (racemic) [compound 11868] |  | 455 | 2160 | 
Cc1cc(NC(=O)[C@@H]2CC=C[C@@H]3CCN(Cc4ccccc4)C(=O)[C@@H]32)ccc1Cl (racemic) [compound 11872] | 123 | 86 | 2180 | 
O=C(NCc1ccc(Cl)c(C(F)(F)F)c1)[C@@H]1CC=C[C@@H]2CCN(CCc3ccccc3)C(=O)[C@@H]21 (racemic) [compound 11874] |  | 319 | 1240 | 
O=C(Nc1ccc(Br)c(C(F)(F)F)c1)[C@@H]1CC=C[C@@H]2CCN(CCc3ccccc3)C(=O)[C@@H]21 (racemic) [compound 11875] |  | 2280 | 1180 | 
Cc1cc(NC(=O)[C@@H]2CC=C[C@@H]3CCN(CCc4ccccc4)C(=O)[C@@H]32)ccc1Cl (racemic) [compound 11878] |  | 4120 | 1670 | 
O=C(Nc1cccc(Cl)c1)[C@@H]1CC=C[C@@H]2CCN(CC3CCCCC3)C(=O)[C@@H]21 (racemic) [compound 11888] | 70 | 68 |  | 
O=C(Nc1ccc(Br)c(C(F)(F)F)c1)[C@H]1CC=C[C@H]2CCN(Cc3ccccc3)C(=O)[C@@H]12 [11869*] |  | 16.5 | 648 | Emax (KOR [1]): 68%
O=C(Nc1ccc(Cl)c(C(F)(F)F)c1)[C@@H]1CC=C[C@@H]2CCN(Cc3ccccc3)C(=O)[C@@H]21 [compound 11789] |  |  |  | Ki (MOR): 3480 nM; Ki (KOR [2]): 132 nM
O=C(Nc1ccc(Cl)c(C(F)(F)F)c1)[C@H]1CC=C[C@H]2CCN(Cc3ccccc3)C(=O)[C@@H]12 [compound 11790] |  |  |  | Ki (MOR): 208 nM; Emax (KOR [1]): 78%; Ki (KOR [2]): 3.2 nM
O=C(Nc1ccccc1)[C@H]1CC=C[C@H]2CCN(Cc3ccccc3)C(=O)[C@@H]12 [compound 11794] |  | 137 | 1660 | 
O=C(Nc1ccc(Cl)c(C(F)(F)F)c1)[C@@H]1CC=C[C@H]2CCN(Cc3ccccc3)C(=O)[C@H]21 [compound 11795] |  |  | 5420 | Ki (KOR [2]): 158 nM
